Results taken from ChEMBL document CHEMBL1201862, “PubChem BioAssay data set” (2004).
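Step 1: Grow cells in 96-well plates. Step 2: Expose to compound for 48 hours at 5 concentrations. Step 3: Interpolate endpoints linearly; if unreached, use highest concentration. At the GI50, growth is halved.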 Active and inactive are the calls of the source. No stated cut-off is given here; in the data, active = GI50 up to about 1.1 µM and inactive = higher.

Columns and labels:
Assay in all cases: inhibition of tumour cell growth, NCI panel, 48 h
COLO 205 = system: COLO 205
HCT-15 = system: HCT-15
HL-60 = system: HL-60
HOP-92 = system: HOP-92
IGROV-1 = system: IGROV-1
LOX IMVI = system: LOX IMVI
NCI-H460 = system: NCI-H460
NCI-H522 = system: NCI-H522
OVCAR-5 = system: OVCAR-5
RPMI-8226 = system: RPMI-8226
SF-268 = system: SF-268
SK-MEL-28 = system: SK-MEL-28
SK-MEL-2 = system: SK-MEL-2
SK-OV-3 = system: SK-OV-3
SN12C = system: SN12C
SNB-19 = system: SNB-19
SNB-75 = system: SNB-75
DMS-114 = system: DMS-114
M19-MEL = system: M19-MEL
XF498 = system: XF498

| SMILES | GI50 (COLO 205) | GI50 (HCT-15) [µM] | GI50 (HL-60) | GI50 (HOP-92) | GI50 (IGROV-1) | GI50 (LOX IMVI) | GI50 (NCI-H460) | GI50 (NCI-H522) | GI50 (OVCAR-5) | GI50 (RPMI-8226) | GI50 (SF-268) | GI50 (SK-MEL-28) | GI50 (SK-MEL-2) | GI50 (SK-OV-3) | GI50 (SN12C) | GI50 (SNB-19) | GI50 (SNB-75) | GI50 (DMS-114) | GI50 (M19-MEL) | GI50 (XF498) |
| --- | --- | --- | --- | --- | --- | --- | --- | --- | --- | --- | --- | --- | --- | --- | --- | --- | --- | --- | --- | --- |
| C=CS(=O)(=O)c1c2cc(OC)ccc2nc2ccc(OC)cc12 | 4.34 µM (inactive) | 3.31 | 7.96 µM (inactive) | 5.33 µM (inactive) | 2.92 µM (inactive) | 2.21 µM (inactive) | 5.12 µM (inactive) | 1.73 µM (inactive) | 6.14 µM (inactive) | 2.37 µM (inactive) | 8.57 µM (inactive) | 7.98 µM (inactive) | 19 µM (inactive) | 17.7 µM (inactive) | 2.88 µM (inactive) | 12.6 µM (inactive) | 12.4 µM (inactive) | – | – | – |
| Cc1cccc2nc3c(C(=O)NCCN(C)C)cccc3cc12 | 0.681 µM (active) | 2.33 | 1.14 µM (inactive) | 0.776 µM (active) | 2.31 µM (inactive) | 1.26 µM (inactive) | 0.705 µM (active) | – | 2.27 µM (inactive) | 0.789 µM (active) | 1.68 µM (inactive) | 1.85 µM (inactive) | 1.88 µM (inactive) | 2.58 µM (inactive) | 1.19 µM (inactive) | 0.94 µM (active) | 2.25 µM (inactive) | 1.31 µM (inactive) | 1.52 µM (inactive) | 1.58 µM (inactive) |
| Clc1nc(Cl)nc(Nc2cccc3ccccc23)n1 | > 10 µM (inactive) | > 10 | 7.98 µM (inactive) | – | > 10 µM (inactive) | > 10 µM (inactive) | > 10 µM (inactive) | > 10 µM (inactive) | > 10 µM (inactive) | > 10 µM (inactive) | > 10 µM (inactive) | > 10 µM (inactive) | > 10 µM (inactive) | > 10 µM (inactive) | > 10 µM (inactive) | > 10 µM (inactive) | > 10 µM (inactive) | – | – | – |
| COC(=O)c1c(O)ccc2c1c1c(n2Cc2cccc(C)c2)C(=O)c2ccccc2C1 | 12.1 µM (inactive) | 19.7 | > 75 µM (inactive) | 42.6 µM (inactive) | 42.7 µM (inactive) | 19.8 µM (inactive) | 19.4 µM (inactive) | – | 22 µM (inactive) | 12 µM (inactive) | 28 µM (inactive) | 0.295 µM (active) | 45 µM (inactive) | > 75 µM (inactive) | 12.9 µM (inactive) | > 75 µM (inactive) | – | – | – | – |
| COc1ccc(C(=O)Cc2ccc(Cl)cc2)cc1OC | – | > 100 | > 100 µM (inactive) | – | > 100 µM (inactive) | > 100 µM (inactive) | > 100 µM (inactive) | 64.9 µM (inactive) | > 100 µM (inactive) | > 100 µM (inactive) | > 100 µM (inactive) | – | > 100 µM (inactive) | > 100 µM (inactive) | > 100 µM (inactive) | > 100 µM (inactive) | 34.4 µM (inactive) | > 100 µM (inactive) | > 100 µM (inactive) | > 100 µM (inactive) |
| COc1cc(C2c3cc4c(cc3OC3(O)COC(=O)C23)OCO4)cc(OC)c1OC (stereo not given) | – | 53.2 | 30.3 µM (inactive) | – | 48.9 µM (inactive) | 47.5 µM (inactive) | 56.2 µM (inactive) | 22.7 µM (inactive) | > 100 µM (inactive) | 58.2 µM (inactive) | 85.3 µM (inactive) | – | > 100 µM (inactive) | 25.1 µM (inactive) | 67 µM (inactive) | 53.5 µM (inactive) | 25.2 µM (inactive) | 34.7 µM (inactive) | 56.6 µM (inactive) | 35.7 µM (inactive) |
| Cc1cc(Cl)ccc1NC1=NC(=O)C(CC(=O)Nc2cccc(Cl)c2)S1 (stereo not given) | 72.1 µM (inactive) | 32.1 | 9.16 µM (inactive) | 14.2 µM (inactive) | 40.3 µM (inactive) | 13.3 µM (inactive) | 62.2 µM (inactive) | 26.5 µM (inactive) | 16.1 µM (inactive) | – | 46.9 µM (inactive) | > 100 µM (inactive) | 37.8 µM (inactive) | 42.5 µM (inactive) | 53.5 µM (inactive) | > 100 µM (inactive) | 18.7 µM (inactive) | 12.1 µM (inactive) | 43.9 µM (inactive) | 28.4 µM (inactive) |
| C=CCOC1=C(OCC=C)C(C2COC(C)(C)O2)OC1=O (stereo not given) | > 100 µM (inactive) | > 100 | 45 µM (inactive) | 14.8 µM (inactive) | > 100 µM (inactive) | 33.2 µM (inactive) | > 100 µM (inactive) | 22.1 µM (inactive) | > 100 µM (inactive) | 45.9 µM (inactive) | > 100 µM (inactive) | > 100 µM (inactive) | > 100 µM (inactive) | > 100 µM (inactive) | > 100 µM (inactive) | > 100 µM (inactive) | > 100 µM (inactive) | – | – | – |
| Cn1c(=O)c2nc(N3CCOCC3)cnc2n(C)c1=O | > 100 µM (inactive) | > 100 | > 100 µM (inactive) | > 100 µM (inactive) | > 100 µM (inactive) | – | > 100 µM (inactive) | > 100 µM (inactive) | > 100 µM (inactive) | > 100 µM (inactive) | > 100 µM (inactive) | > 100 µM (inactive) | > 100 µM (inactive) | > 100 µM (inactive) | > 100 µM (inactive) | > 100 µM (inactive) | > 100 µM (inactive) | > 100 µM (inactive) | > 100 µM (inactive) | > 100 µM (inactive) |
| CC1(C)C(=O)c2ccccc2OC1N1CCN(C2Oc3ccccc3C(=O)C2(C)C)CC1 (stereo not given) | > 100 µM (inactive) | > 100 | > 100 µM (inactive) | > 100 µM (inactive) | > 100 µM (inactive) | > 100 µM (inactive) | > 100 µM (inactive) | > 100 µM (inactive) | > 100 µM (inactive) | > 100 µM (inactive) | > 100 µM (inactive) | > 100 µM (inactive) | – | > 100 µM (inactive) | > 100 µM (inactive) | > 100 µM (inactive) | 28 µM (inactive) | – | – | – |
| Cn1ccnc1C(O)(c1nccn1C)c1nccn1C | > 100 µM (inactive) | – | > 100 µM (inactive) | > 100 µM (inactive) | – | > 100 µM (inactive) | > 100 µM (inactive) | > 100 µM (inactive) | > 100 µM (inactive) | – | > 100 µM (inactive) | > 100 µM (inactive) | > 100 µM (inactive) | – | > 100 µM (inactive) | > 100 µM (inactive) | > 100 µM (inactive) | > 100 µM (inactive) | > 100 µM (inactive) | > 100 µM (inactive) |
| C=CCN(N=O)C(=O)N(CCC)CCCCC(NC(C)=O)C(=O)NCc1ccccc1 (stereo not given) | > 100 µM (inactive) | > 100 | 21 µM (inactive) | 23.2 µM (inactive) | > 100 µM (inactive) | 67.1 µM (inactive) | > 100 µM (inactive) | 73.6 µM (inactive) | > 100 µM (inactive) | 26.9 µM (inactive) | > 100 µM (inactive) | > 100 µM (inactive) | > 100 µM (inactive) | > 100 µM (inactive) | > 100 µM (inactive) | > 100 µM (inactive) | 71.8 µM (inactive) | 59.2 µM (inactive) | 56 µM (inactive) | > 100 µM (inactive) |
| COC(=O)C1CCC(=O)N1C(=O)Cc1ccc(OC)cc1 (stereo not given) | > 100 µM (inactive) | > 100 | – | > 100 µM (inactive) | > 100 µM (inactive) | > 100 µM (inactive) | > 100 µM (inactive) | > 100 µM (inactive) | > 100 µM (inactive) | – | > 100 µM (inactive) | > 100 µM (inactive) | – | > 100 µM (inactive) | > 100 µM (inactive) | > 100 µM (inactive) | > 100 µM (inactive) | > 100 µM (inactive) | > 100 µM (inactive) | > 100 µM (inactive) |
| CCCn1cc2c(O)nc(SC)nc2n1 | > 100 µM (inactive) | > 100 | > 100 µM (inactive) | > 100 µM (inactive) | > 100 µM (inactive) | > 100 µM (inactive) | > 100 µM (inactive) | – | 79.4 µM (inactive) | > 100 µM (inactive) | 59 µM (inactive) | > 100 µM (inactive) | > 100 µM (inactive) | – | > 100 µM (inactive) | > 100 µM (inactive) | 41.6 µM (inactive) | 91.6 µM (inactive) | – | 45.3 µM (inactive) |
| Nc1nc(N)c2c(n1)NC(=O)c1c(c3ccccc3n1Cc1ccc(Cl)cc1)C2 | 16 µM (inactive) | 17 | 18 µM (inactive) | 1.5 µM (inactive) | 29.6 µM (inactive) | 19.1 µM (inactive) | 18.2 µM (inactive) | – | 48.9 µM (inactive) | – | 45.5 µM (inactive) | 49 µM (inactive) | 32.4 µM (inactive) | 18.8 µM (inactive) | 17.3 µM (inactive) | > 100 µM (inactive) | 17.9 µM (inactive) | – | – | – |
| CC1(C)COC(/C=C/C2=NC(C)(C)CO2)=N1 | 14.4 µM (inactive) | 15.1 | 20.1 µM (inactive) | 25 µM (inactive) | 18.5 µM (inactive) | 3.25 µM (inactive) | 67 µM (inactive) | 2.77 µM (inactive) | 20.4 µM (inactive) | 10 µM (inactive) | 24.3 µM (inactive) | 17.6 µM (inactive) | 26.5 µM (inactive) | > 100 µM (inactive) | 1.95 µM (inactive) | 68.5 µM (inactive) | > 100 µM (inactive) | – | – | – |
| COc1ccc(C2C(Cl)C(=O)N2NC(=O)c2ccccc2O)cc1 (stereo not given) | > 100 µM (inactive) | – | > 100 µM (inactive) | > 100 µM (inactive) | > 100 µM (inactive) | – | > 100 µM (inactive) | > 100 µM (inactive) | – | > 100 µM (inactive) | > 100 µM (inactive) | > 100 µM (inactive) | > 100 µM (inactive) | > 100 µM (inactive) | > 100 µM (inactive) | > 100 µM (inactive) | > 100 µM (inactive) | > 100 µM (inactive) | > 100 µM (inactive) | – |
